Consider one substance from patent US12227534B2, “Method for preparing nicotinamide mononucleotide by using nicotinamide as raw material” (BONTAC BIO-ENGINEERING(SHENZHEN) CO., LTD., priority 2020, dated 2025).

The nature of data set [1]: Long-term stability of nicotinamide ribose solution after pH adjustment with hydrochloric acid. It counts as physicochemical. To be noted: storage temperature 0-4° C., storage time 45 days. From the text:
(§1) The results of various parameters in the preparation of the intermediate product nicotinamide ribose solution are shown in Table 1 to Table 5.

Data set [2] is described as follows: Long-term stability of nicotinamide ribose solution after pH adjustment with sodium bicarbonate. The note with it: 2-4° C., storage time 45 days. The class given is physicochemical.
From the text: as §1

For the substance “nicotinamide ribose [nicotinamide ribose solution]”, the “Stability (degradation)” value in data set [1] (pH 4 (hydrochloric acid)) was determined as 1.3%; in data set [1] (pH 5 (hydrochloric acid)) it was 2.1%; in data set [2] (pH 4 (sodium bicarbonate)), 2.4%; in data set [2] (pH 5 (sodium bicarbonate)) it was 3.7%.
